Entries after “also recorded” stand apart in the source; their conditions may differ. Bridge positions count the residues as written; N and C are the ends. Square brackets hold non-standard residues; d marks the D form. Ends that are not written are not given here. 1Nal = N[C@@H](Cc1cccc2ccccc12)C(=O)O; Sar = CNCC(=O)O
Legend:
rat model of PRCA = assay: Rat model of PRCA (anti-EPO antibody-induced anemia); format: in vivo
Procedure: The efficacy of Peptide I to correct anemia due to recombinant EPO anti-body induced PRCA was assessed in a rat model of PRCA. […] The rat model of PRCA consisted of induction of anti-EPO antibodies in a rat to yield a model of PRCA. Subsequent to inducing PRCA in rats, the erythropoietic activity of Peptide I, compared to rats treated with recombinant EPO, was evaluated in the rat model of PRCA following weekly administrations of Peptide I or recombinant EPO.
Additionally, administration of Peptide I to rats positive for anti-EPO antibodies allowed evaluation of Peptide I to correct PRCA-induced anemia.
Experiments were also conducted in anemic anti-EPO antibody positive rats to determine if normal hemoglobin levels could be maintained. The anemic anti-EPO antibody positive rats were treated with Peptide I approximately every 4 weeks for a total of additional seven injections. Hemoglobin levels in the Peptide I and vehicle-treated antibody-positive rats were compared to concurrent controls.
EPO-induced PRCA in humans and rats characterized by severe anemia associated with the presence of anti-EPO antibodies, an absence of reticulocytes, and limited bone marrow erythroid precursors with concomitant presence of normal numbers of granulocytic and megakaryocytic lineages. Peptide I corrected the EPO-induced anemia in these animals.

[1] = tested on: bone marrow cultures established from healthy human donors; assay: Bone marrow cultures with patient serum (erythroid colonies); format: cell-based
Procedure: The anti-Peptide I antibody assay was performed in the laboratories of the Sponsor using an ELISA method, with a sensitivity of 300 ng/mL [Fan Q., et al. (2006) Exp. Hematol. 34: 1303-11; Woodburn K W, et al. (2007) Exp. Hematol. 35: 1201-8]. Anti-EPO antibodies were measured by radioimmune precipitation assay. To confirm that the patient's antibodies were not cross-reactive with Peptide I, serum from three patients was tested in bone marrow cultures (established from healthy human donors, as previously described [Verhelst D, et al. (2004) Lancet 363: 1768-71]). Culture conditions included 20% of either fetal calf serum as a control or one of the study patient's serum. Cultures included either 1 IU/mL of recombinant human EPO or 0.55 μg/mL of Peptide I (a concentration previously shown to be equivalent to 1 IU/mL of EPO for erythroid growth). Erythroid colonies were counted on day 7.

[2] = in vivo; cited from earlier work
[3] = tested on: patients with anti-EPO antibody-mediated PRCA; assay: Open-label clinical study in patients with anti-EPO antibody-mediated PRCA; format: in vivo, human
Procedure: An open-label, prospective, non-randomized study was conducted to investigate the ability of Peptide I to correct anemia in patients with PRCA that is characterized by anti-EPO antibodies. The pre-specified primary objective was to determine if Peptide I could increase and maintain hemoglobin levels above 11 g/dL (consistent with both U.S.[KDOQI Clinical Practice Guidelines and Clinical Practice Recommendations for Anemia in Chronic Kidney Disease (2006) Am. J. Kidney Dis. 47 (Suppl 3):S11-S145.] and European Guidelines [Locatelli F, et al. (2004) Nephrol. Dial. Transplant 19 (Suppl 2): ii1-47.]) without the need for red cell transfusions in patients with anti-EPO antibody-mediated PRCA during 6 months of treatment. The effect of Peptide I on reducing red cell transfusions, the time required to correct anemia in the absence of transfusions, dose requirements, and safety were also assessed.
Patients older than 18 years of age were eligible for inclusion if they had CKD (with or without the need for dialysis) and PRCA or red cell hypoplasia due to anti-EPO antibodies. Patients were required to have a documented history of: (1) a decrease in hemoglobin concentration while receiving a stable or increased dose of a protein-based ESA, or red cell transfusion dependency; (2) reticulocyte counts of <30×10^9/L; (3) a bone marrow examination showing severe erythroid hypoplasia or aplasia; and (4) a confirmed positive test for anti-EPO antibodies. Patients may have received immunosuppressive therapy previously, but these medications were to be discontinued for at least three months prior to enrollment. At the time of enrollment, patients had to either be transfusion-dependent, or have a hemoglobin concentration persistently below 11 g/dL without ESA therapy. The presence of another hematological disorder, another known cause of PRCA, and current treatment with ESA or immunosuppressive therapy represented the major exclusion criteria.
Blood samples were taken for baseline measurement of the complete blood count, reticulocyte count, urea, electrolytes, liver function tests, iron status, anti-EPO antibodies, and anti-Peptide I antibodies. Upon meeting study eligibility criteria, treatment with Peptide I was initiated at a dose of 0.05 mg/kg by SC injection Q4W. Hemoglobin and reticulocyte counts were performed weekly, while samples were taken monthly for other safety laboratory parameters including urea, electrolytes, liver function tests and anti-EPO and anti-Peptide I antibodies. The frequency and dose of each injection was adjusted based on the patient's hemoglobin response to achieve a hemoglobin level in the target range of 11-13 g/dL. This target was subsequently changed to 11-12 g/dL in early 2007 following publication of the CREATE [Drueke T B, et al. (2006) N. Engl. J. Med. 355: 2071-84] and CHOIR [Singh A K, et al. (2006) N. Engl. J. Med 355: 2085-98] studies, in line with subsequent KDOQI recommendations [KDOQI Clinical Practice Guideline and Clinical Practice Recommendations for Anemia in Chronic Kidney Disease (2007) Am. J. Kidney Disease 50: 471-530].
The study was designed to enroll 5-20 patients with anti-EPO antibody mediated PRCA based on the Investigators' estimate of the maximum number of potentially eligible patients with access to the study centers. Patients were to be treated for an initial 6-month period. […] All patients who received at least one dose of Peptide I were included in the safety analysis, and those with at least one hemoglobin value following dosing were included in the efficacy analyses. All safety and efficacy results were summarized using descriptive statistics and data are presented as medians, 25th and 75th percentiles, and ranges.

PEGylated homodimer of peptide monomers (AcG)GLYACHMGPIT(1-nal)VCQPLR(MeG)K (SEQ ID NO: 2), EPO-R agonist (Ac-GGLYACHMGPIT[1Nal]VCQPLR[Sar]K; disulfide 6-15 (inferred); not fully specified (residue 21); printed as (AcG)GLYACHMGPIT(1-nal)VCQPLR(MeG)K; also: PEGylated) [Peptide I]
maintenance of hemoglobin levels (rat model of PRCA; anemic anti-EPO antibody-positive rats, repeat administrations every 4 weeks): sustained correction of hemoglobin levels
reticulocytosis (rat model of PRCA; anti-EPO antibody-positive anemic rats, compared to recombinant EPO treated rats): significantly increased
hemoglobin levels (rat model of PRCA; anti-EPO positive animals versus antibody-negative control rats): greater than hemoglobin levels achieved in the anti-EPO antibody-negative control rats
correction of antibody-induced anemia (rat model of PRCA; rat model of PRCA): corrected antibody-induced anemia; also recorded: reversed
erythroid growth in presence of patient serum ([1]; 20% serum of three patients, 1 IU/mL EPO or 0.55 μg/mL Peptide I, colonies counted day 7): erythroid differentiation was observed
concentration equivalent to 1 IU/mL of EPO for erythroid growth ([1]; previously shown): 0.55 µg/mL
clearance times [2]: slow
half-life [2]: prolonged
patients with hemoglobin response (above 11 g/dL without transfusion) ([3]; 10 patients, median follow up 13.5 months, SC Q4W): 10 patients
tolerability ([3]; SC injections): generally well-tolerated
patients receiving red blood cell transfusions ([3]; as of month 4): one
median ferritin levels ([3]; at data cut-off, baseline 1,356 μg/L): 1,243 μg/L
median TSAT ([3]; at data cut-off, baseline 70.9%): 50.0%
patients receiving red blood cell transfusions ([3]; at month 6): no patient
median hemoglobin ([3]; by 6 months, baseline 9.7 g/dL): 11.6 g/dL
patients receiving red blood cell transfusions ([3]; during month 7 (prior to kidney transplant surgery)): one
patients receiving red blood cell transfusions ([3]; during the first month): 3 patients
patients receiving red blood cell transfusions ([3]; from month 8 onwards): no patient
median time to hemoglobin response ([3]; human, in vivo): 10 weeks
serious adverse events related to study drug ([3]; human, in vivo): none of these events was considered related to study drug; also recorded: no reports of serious adverse events related to Peptide I
serious adverse events ([3]; in 2 patients): Four
adverse events reported ([3]; in 10 patients): 108 events
adverse events at least possibly related to Peptide I ([3]; of 108 events): 4 events
adverse events mild or moderate in severity ([3]; of 108 events): 97 events

From patent US20090209457A1, “TREATMENT OF ANTI-ERYTHROPOIETIN ANTIBODY-MEDIATED DISORDERS WITH SYNTHETIC PEPTIDE-BASED EPO RECEPTOR AGONISTS” (Affymax, Inc., priority 2008, published 2009)
